The source of these data is US20060116318A1, “Preptin methods of use” (priority 2002, published 2006).

“Also recorded” adds a separate entry of the source. Where two headings read alike, the source gives them in different places. A value given as a limit tells only on which side of the number the result lay.

Assay [1] has as its system primary fetal rat osteoblasts. As to the kind of experiment: Proliferation (cell number, [3H]-thymidine incorporation) of fetal rat osteoblast-like cells. Type of assay: cell-based. How it is done:
Osteoblast-Like Cell Culture. Osteoblasts were isolated from 20 day fetal rat calvariae as previously described (Cornish et al. (1999) American Journal of Physiology Endocrinology & Metabolism 277: E779-E783). Briefly, calvariae were excised and the frontal and parietal bones, free of suture and periosteal tissue, were collected. The calvariae were sequentially digested using collagenase and the cells from digests 3 and 4 were collected, pooled and washed. Cells were grown to confluence and then subcultured into 24 well plates. Cells were growth arrested in minimum essential medium (MEM)/0.1% bovine serum albumin for 24 h. Fresh media and experimental compounds were added for a further 24 h. Cells were pulsed with tritiated-thymidine two hours before the end of the experimental incubation. The effect of preptin on proliferation of fetal rat osteoblast-like cells was first assessed by the measurement of cell numbers. The effect of preptin on DNA synthesis in osteoblasts was then assessed by the measurement of [^3H]-thymidine incorporation into isolated fetal rat osteoblast-like cells. There were 6 wells in each group and each experiment was repeated 3 or 4 times.

Assay [2] deals with murine bone marrow cultures. As to the kind of experiment: Osteoclastogenesis assay in murine bone marrow cultures (TRAP-positive multinucleated cells). Type of assay: cell-based, mouse. Conditions: various concentrations; 7 days; with 1α,25-dihydroxyvitamin D3; FIG. 4. How it is done:
The effects of preptin on the development of osteoclasts was also examined. To assess osteoclast development, bone marrow is obtained from the long bones of normal mice, aged 4-6 weeks and cultured. Non-adherent cells are removed and the cultures are grown in the presence of 1α,25-dihydroxyvitamin D3 throughout the experiment. The cultures were maintained for 7 days and the number of tartrate-resistant acid phosphatase-positive multinucleated cells was assessed. An osteoclastogenesis assay was performed with murine bone marrow cultures in the presence of various concentrations of rat preptin. The number of tartrate-resistant acid phosphatase (TRAP)-positive multinucleated cells was assessed (FIG. 4).

Assay [3] relates to sexually mature male mice. As to the kind of experiment: Local subcutaneous injection over the hemicalvaria, histomorphometry. Type of assay: in vivo. Conditions: for Bone Area, Mean ± Std Error: twice daily s.c. over right hemicalvaria; for Bone Area, Mean ± Std Error / % Mineralizing Surface/Total Bone Surface, Mean ± Std Error: 5 days; for % Mineralizing Surface/Total Bone Surface, Mean ± Std Error: twice daily s.c. How it is done:
Three groups of sexually mature male mice were given twice daily subcutaneous injections over the right hemicalvaria for 5 consecutive days. Two groups received one of 2 doses of preptin (0.825 μg or 8.25 μg per injection), and a further […] received vehicle. The animals were sacrificed 1 week following the last injection. Fluorochrome labels were injected subcutaneously at the base of the tail on days 1 (calcein), 5 (alizarin red) and 14 (calcein) to measure dynamic histomorphometric indices (such as, extent of mineralizing surface). Calvariae were excised, fixed in 10% neutral-buffered formalin, dehydrated and embedded in methylmethacrylate resin. Sections were cut, mounted on gelatin-coated slides, and histomorphometric indices measured using image analysis.

Assay [4] relates to isolated, perfused rat pancreas. To be noted: infusion into isolated, Buchanan et al. 2001; cited from earlier work.
Assay [5] deals with murine neonatal calavarial organ culture system. As to the kind of experiment: Bone resorption in murine neonatal calvarial organ culture. Type of assay: cell-based, mouse. Conditions: data not shown.
Assay [6] deals with long-term osteoblast cultures. The assay can be described thus: Osteoblast differentiation, mineralized bone nodules in long-term osteoblast cultures. Type of assay: cell-based. Conditions: 10^−8M.
A further assay relates to primary rat osteoblasts. The assay can be described thus: TUNEL assay of apoptosis in serum-deprived primary rat osteoblasts. Type of assay: cell-based. To be noted: 10^−8 M; apoptosis induced by serum deprivation; 18 h; FIG. 6. The method, then: Immunoblotting (Cell Signalling Methods). Primary rat osteoblasts prepared as described above were seeded in 6-well tissue culture plates at an initial density of 5×10^4 cells/mL in MEM 5% FCS, and grown to 80-90% confluence. After serum starvation overnight, cells were treated at room temperature with test substances in MEM 0.1% BSA. In experiments designed to determine the effect of inhibitors of signal transduction on preptin-induced p42/44 MAP kinase phosphorylation, the cells were pre-treated with the inhibitor for 30 min prior to addition of test substances. The exception was pertussis toxin, which was added 18 h prior to test substances. […] The lysates were briefly vortexed, clarified by centrifugation at 13,000 rpm at 4° C., then stored at −70° C. until analyzed. Protein content of the cell lysates was measured using the DC protein assay (BioRad, Hercules, Calif.). […] Incubation with the HRP-conjugated secondary antibody was for 1 h at room temperature, and the membranes were analyzed by ECL. […] Apoptosis in cultures of primary rat osteoblasts was assessed using the TUNEL method (DeadEnd™, Promega, Madison, Wis.) according to the manufacturer's instructions. […] After counterstaining with hematoxylin, the number of apoptotic nuclei per microscopic field was counted and expressed as a proportion of that observed in the cells exposed to serum starvation throughout the entire treatment period. […]

The subject of assay [7] is murine neonatal calvarial organ culture. As to the kind of experiment: Thymidine incorporation in murine neonatal calvarial organ culture. Type of assay: cell-based, mouse. To be noted: FIG. 3 (rat preptin, two concentrations). On the technique in general: Dividing cells build labelled thymidine or BrdU into new DNA.
The mark [8] stands for this setting: primary osteoblasts pre-treated with inhibitor, FIG. 5A, 5B.
The mark [9] stands for this setting: high dose, 16.5 micrograms daily for five days, local s.c. injection.

`COc1cccc(-c2cc(=O)c3ccccc3o2)c1N` [PD-98059]: the “effect of inhibitor pre-treatment on the proliferative effects of preptin” value (from here on “effect of inhibitor pre-treatment”) in assay [1] (setting [8]) is “blocked”.

Consider `N#CC(=C(/N)Sc1ccccc1N)/C(C#N)=C(\N)Sc1ccccc1N` [U-0126], for which the “effect of inhibitor pre-treatment” value in assay [1] is listed as “blocked”.

Turning to “DVSTSQAVLPDDFPRYPVGKFFKFDTWRQSAGRL (Rattus) [rat preptin]”, the “osteoclast development (number of TRAP-positive multinucleated cells)” value in assay [2] is listed as “did not affect osteoclast development”.

pertussis toxin: the “effect of inhibitor pre-treatment” value in assay [1] (setting [8]) is “blocked”.

Regarding “preptin: 34-amino acid peptide corresponding to Asp69-Leu102 of proinsulin-like growth factor II; species form not always stated”, the “Bone Area, Mean ± Std Error” value in assay [3] (high dose (8.25 μg per injection), P = 0.013 vs control 1.028 ± 0.023) is given as “*1.084 ± 0.017”; in assay [3] (low dose (0.825 μg per injection), control 1.028 ± 0.023), 1.083 ± 0.027. In addition, the “% Mineralizing Surface/Total Bone Surface, Mean ± Std Error” value in assay [3] (high dose (8.25 μg per injection), P = 0.046 vs control 1.048 ± 0.013) was “*1.119 ± 0.032%”; in assay [3] (low dose (0.825 μg per injection), control 1.048 ± 0.013) it was 1.065 ± 0.033%. Besides, the “bone area compared to control (in words)” value in assay [3] (setting [9]) is “significant increase; also recorded: increased”. Further, the “mineralizing surface compared to control (in words)” value in assay [3] (setting [9]) is recorded as “significant increase; also recorded: increased”. Also, in assay [4], the “second phase of insulin secretion” value is given as “significant increase”. Also, the “concentrations stimulating proliferation (cell number and DNA synthesis)” value in assay [1] (dose-dependent, primary fetal rat osteoblasts and osteoblast-like cell lines, 24 h, FIGS. 1 and 2 (rat and human preptin)) is reported as > 10^−11 M. The bone resorption entry in assay [5] is listed as “did not affect bone resorption”. Besides, the “osteoblast differentiation, number of mineralized bone nodules” value in assay [6] was “significantly increasing the number of mineralized bone nodules”. The “apoptosis, treatment/control ratio” value in the assay with primary rat osteoblasts is on record as 0.78±0.08. For the same molecule, the thymidine incorporation result in assay [7] is recorded as “stimulated”.
